The target in test [1] is T1, EGFR L858R-T790M (Homo sapiens, UniProt P00533, L858R/T790M).
T1 construct: NCI-H1975 (harboring EGFR heterozygous L858R-T790M mutations); host or cells: NCI-H1975
Description: EGFR degradation, Total EGFR (L858R-specific) HTRF, NCI-H1975. The format is cell-based. To be noted: NCI-H1975 cells, 6 hours, Total EGFR HTRF, read-out: H1975 EGFR DC50. The method, boiled down:
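FRET signal from HTRF kits measured phospho-EGFR at pY1068 or total EGFR after 6 h treatment at 37 °C. Compounds ran as 11-point half-log dilutions from 10 μM in duplicate, in cells in phenol red-free RPMI with 10% FBS. Concentrations giving 50% inhibition or degradation were reported as IC50 or DC50.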
A general note: TR-FRET usually uses a lanthanide donor and a delayed reading to cut background.

Test [2] deals with EGFR L858R (Homo sapiens, UniProt P00533, L858R). As to the kind of experiment: EGFR degradation, Total EGFR (L858R-specific) HTRF, NCI-H3255. To be noted: NCI-H3255 cells, 6 hours, Total EGFR HTRF, read-out: H3255 EGFR DC50. The format is cell-based. Set-up: NCI-H3255 (harboring EGFR heterozygous L858R mutation); host or cells: NCI-H3255. The text has this:
NCI-H1975 (harboring EGFR heterozygous L858R-T790M mutations) and NCI-H3255 (harboring EGFR heterozygous L858R mutation) were purchased from ATCC and NCI, respectively. NCI-H1975+CS (harboring EGFR heterozygous L858R-T790M-C797S mutations) was generated using CRISPR technology to introduce the additional C797S mutation by Horizon Discovery. A431 (harboring EGFR wildtype) was purchased from ATCC. RPMI 1640 no-phenol red medium and fetal bovine serum (FBS) were purchased from Gibco (Grand Island, NY, USA). Cell culture flasks and 384-well microplates were acquired from VWR (Radnor, PA, USA). Phosphorylated (pY1068) EGFR and Total EGFR (using L858R-specific detection antibody and pan-EGFR antibody for EGFR mutant cell lines and EGFR wild-type cell lines, respectively) HTRF assay kits were purchased from Cisbio (Bedford, MA, USA).
Degradation of EGFR protein containing L858R mutation or wild-type was determined based on quantification of FRET signal using a Total EGFR (L858R-specific or pan-EGFR detecting) HTRF assay kit. Phospho-EGFR (pEGFR) inhibition was determined based on quantification of FRET signal using a pY1068 EGFR HTRF assay kit. In separate assay plates, test compounds were added to the 384-well plate from a top concentration of 10 μM with 11 points, half log titration in duplicates. For each assay, 12.5 uL of cells suspended in assay media (RPMI 1640 no-phenol red medium+10% FBS) at cell densities indicated for each cell line in Table 8 below were dispensed using a multi-channel pipette to 384-well low volume white HTRF microplates containing a duplicate concentration range of test compounds and DMSO controls. The plates were kept at 37° C. with 5% CO2 for 6 hours and then incubated with either phospho EGFR or Total EGFR HTRF detection antibodies according to the cell line and EGFR mutant being assayed. Cells treated in the absence of the test compound were the negative control. Positive control was set by wells containing all reagents but no cells. FRET signal was acquired on EnVision™ Multilabel Reader (PerkinElmer, Santa Clara, CA, USA). Compound concentration that achieves 50% degradation and inhibition was reported as DC50 and IC50, respectively.

The structures appear in SMILES notation. Read-outs that look alike come from different tables or passages of the source. A value given as a limit tells only on which side of the number the result lay.

T1 sequence (P00533 25-1210 T790M/L858R): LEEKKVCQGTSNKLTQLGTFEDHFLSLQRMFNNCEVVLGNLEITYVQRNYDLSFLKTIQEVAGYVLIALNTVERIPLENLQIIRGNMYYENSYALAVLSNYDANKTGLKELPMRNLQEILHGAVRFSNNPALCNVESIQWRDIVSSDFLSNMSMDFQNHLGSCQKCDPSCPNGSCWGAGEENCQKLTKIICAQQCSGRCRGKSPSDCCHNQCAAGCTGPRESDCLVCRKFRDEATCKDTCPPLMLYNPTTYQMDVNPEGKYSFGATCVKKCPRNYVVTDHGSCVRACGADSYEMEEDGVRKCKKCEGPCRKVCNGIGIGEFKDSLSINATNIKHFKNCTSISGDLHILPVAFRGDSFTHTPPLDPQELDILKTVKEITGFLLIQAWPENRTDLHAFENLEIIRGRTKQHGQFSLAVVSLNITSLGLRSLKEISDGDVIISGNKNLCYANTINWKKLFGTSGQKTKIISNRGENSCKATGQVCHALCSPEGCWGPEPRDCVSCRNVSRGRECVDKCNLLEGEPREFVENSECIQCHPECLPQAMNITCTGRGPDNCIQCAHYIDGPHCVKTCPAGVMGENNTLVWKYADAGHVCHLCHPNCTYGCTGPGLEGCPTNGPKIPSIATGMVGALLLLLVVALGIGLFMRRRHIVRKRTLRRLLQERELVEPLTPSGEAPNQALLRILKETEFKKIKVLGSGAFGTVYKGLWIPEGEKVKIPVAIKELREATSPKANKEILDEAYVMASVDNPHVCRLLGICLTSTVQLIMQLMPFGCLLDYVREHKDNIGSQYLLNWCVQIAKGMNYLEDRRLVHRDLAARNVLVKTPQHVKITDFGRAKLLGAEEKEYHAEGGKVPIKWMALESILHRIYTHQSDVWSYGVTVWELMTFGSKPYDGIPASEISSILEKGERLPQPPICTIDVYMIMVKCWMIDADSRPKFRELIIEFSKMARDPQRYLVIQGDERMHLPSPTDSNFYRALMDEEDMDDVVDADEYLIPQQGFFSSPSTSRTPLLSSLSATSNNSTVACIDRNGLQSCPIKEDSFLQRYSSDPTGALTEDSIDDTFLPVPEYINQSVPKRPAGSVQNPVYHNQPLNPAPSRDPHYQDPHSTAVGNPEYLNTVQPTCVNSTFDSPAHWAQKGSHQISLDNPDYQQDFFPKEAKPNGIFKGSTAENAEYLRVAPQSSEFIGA
EGFR L858R, sequence (P00533 25-1210 L858R): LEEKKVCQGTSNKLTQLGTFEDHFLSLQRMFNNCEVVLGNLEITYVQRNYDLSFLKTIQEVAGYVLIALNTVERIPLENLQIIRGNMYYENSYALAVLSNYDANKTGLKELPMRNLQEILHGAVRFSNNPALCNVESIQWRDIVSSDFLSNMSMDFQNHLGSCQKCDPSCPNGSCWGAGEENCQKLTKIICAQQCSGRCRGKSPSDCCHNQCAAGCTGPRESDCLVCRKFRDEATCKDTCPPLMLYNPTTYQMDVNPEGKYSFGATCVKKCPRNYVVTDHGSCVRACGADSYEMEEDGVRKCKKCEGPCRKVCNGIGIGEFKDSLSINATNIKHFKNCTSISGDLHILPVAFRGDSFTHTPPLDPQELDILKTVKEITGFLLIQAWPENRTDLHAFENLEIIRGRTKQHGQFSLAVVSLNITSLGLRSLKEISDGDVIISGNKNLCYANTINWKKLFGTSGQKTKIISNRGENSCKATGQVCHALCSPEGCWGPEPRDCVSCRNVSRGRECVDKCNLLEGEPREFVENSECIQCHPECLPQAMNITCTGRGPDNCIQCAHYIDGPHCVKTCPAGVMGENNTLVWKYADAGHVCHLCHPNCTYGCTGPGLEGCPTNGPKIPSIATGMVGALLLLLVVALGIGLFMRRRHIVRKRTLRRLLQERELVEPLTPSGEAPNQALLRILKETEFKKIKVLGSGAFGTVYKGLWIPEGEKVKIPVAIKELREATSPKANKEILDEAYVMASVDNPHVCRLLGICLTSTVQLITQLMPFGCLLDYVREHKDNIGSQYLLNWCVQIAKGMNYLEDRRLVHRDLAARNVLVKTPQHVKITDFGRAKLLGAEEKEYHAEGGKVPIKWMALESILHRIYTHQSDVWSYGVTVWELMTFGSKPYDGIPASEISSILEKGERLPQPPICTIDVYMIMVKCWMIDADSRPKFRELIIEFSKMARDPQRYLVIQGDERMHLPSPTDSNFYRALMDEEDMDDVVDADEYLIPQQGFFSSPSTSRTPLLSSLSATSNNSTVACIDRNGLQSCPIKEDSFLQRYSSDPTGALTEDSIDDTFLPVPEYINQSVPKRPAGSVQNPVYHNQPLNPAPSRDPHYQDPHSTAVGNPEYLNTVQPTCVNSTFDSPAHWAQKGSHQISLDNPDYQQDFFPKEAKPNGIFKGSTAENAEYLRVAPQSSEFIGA

As to `O=C1CC[C@H](Nc2ccc(C3CCN(CC(=O)N4CC5(CCN(c6ccc(-c7cc(F)c8c(c7)C(=O)N(C(C(=O)Nc7nccs7)c7ncn9c7CCC9)C8)cc6)CC5)C4)CC3)c(F)c2)C(=O)N1` (stereo partly drawn) [Compound 46, 2-(6,7-dihydro-5H-pyrrolo[1,2-c]imidazol-1-yl)-2-(6-(4-(2-(2-(4-(4-(((S)-2,6-dioxopiperidin-3-yl)amino)-2-fluorophenyl)piperidin-1-yl)acetyl)-2,7-diazaspiro[3.5]nonan-7-yl)phenyl)-4-fluoro-1-oxoisoindolin-2-yl)-N-(thiazol-2-yl)acetamide], the DC50 in test [1] (Table 9A) and in test [2] (Table 9A) was 50 to 150 nM throughout.
On to `Cn1nc(N2CCC(=O)NC2=O)c2ccc(C3CCN(CC(=O)N4CC5(C4)CN(c4ccc(-c6cc(F)c7c(c6)C(=O)N(C(C(=O)Nc6nccs6)c6ncn8c6CCC8)C7)cc4)C5)CC3)cc21` (stereo not drawn) [Compound 49, 2-(6,7-dihydro-5H-pyrrolo[1,2-c]imidazol-1-yl)-2-[6-[4-[2-[2-[4-[3-(2,4-dioxohexahydropyrimidin-1-yl)-1-methyl-indazol-6-yl]-1-piperidyl]acetyl]-2,6-diazaspiro[3.3]heptan-6-yl]phenyl]-4-fluoro-1-oxo-isoindolin-2-yl]-N-thiazol-2-yl-acetamide], for which the DC50 in test [1] (Table 9A) and in test [2] (Table 9A) was less than 50 nM each time.
On to `O=C1CC[C@H](Nc2ccc(C3CCN(CC(=O)N4CC5(C4)CN(c4ccc(-c6cc(F)c7c(c6)C(=O)N(C(C(=O)Nc6ccccn6)c6ncn8c6CCC8)C7)cc4)C5)CC3)c(F)c2)C(=O)N1` (stereo partly drawn) [Compound 53, 2-(6,7-dihydro-5H-pyrrolo[1,2-c]imidazol-1-yl)-2-[6-[4-[2-[2-[4-[4-[[(3S)-2,6-dioxo-3-piperidyl]amino]-2-fluoro-phenyl]-1-piperidyl]acetyl]-2,6-diazaspiro[3.3]heptan-6-yl]phenyl]-4-fluoro-1-oxo-isoindolin-2-yl]-N-(2-pyridyl)acetamide], for which the DC50 was 50 to 150 nM in test [1] (Table 9A) and less than 50 nM in test [2] (Table 9A).
In the same order, the values of `O=C1CC[C@H](Nc2ccc(C3CCN(CC(=O)N4CCC(Cc5ccc(-c6cc(F)c7c(c6)C(=O)N(C(C(=O)Nc6nccs6)c6ncn8c6CCC8)C7)cc5)CC4)CC3)c(F)c2)C(=O)N1` (stereo partly drawn) [Compound 60, 2-(6,7-dihydro-5H-pyrrolo[1,2-c]imidazol-1-yl)-2-[6-[4-[[1-[2-[4-[4-[[(3S)-2,6-dioxo-3-piperidyl]amino]-2-fluoro-phenyl]-1-piperidyl]acetyl]-4-piperidyl]methyl]phenyl]-4-fluoro-1-oxo-isoindolin-2-yl]-N-thiazol-2-yl-acetamide] are 50 to 150 nM and less than 50 nM.
For `O=C1CCC(Nc2ccc(C3CCN(CC(=O)N4CCN(c5ccc(-c6cc(F)c7cn(C(C(=O)Nc8nccs8)c8ncn9c8CCC9)nc7c6)cn5)CC4)CC3)nc2)C(=O)N1` (stereo not drawn) [Compound 66, 2-(6,7-dihydro-5H-pyrrolo[1,2-c]imidazol-1-yl)-2-[6-[6-[4-[2-[4-[5-[(2,6-dioxo-3-piperidyl)amino]-2-pyridyl]-1-piperidyl]acetyl]piperazin-1-yl]-3-pyridyl]-4-fluoro-indazol-2-yl]-N-thiazol-2-yl-acetamide], in that order: less than 50 nM and less than 50 nM.
In the same order, the values of `Cn1nc(N2CCC(=O)NC2=O)c2ccc(C3CCN(CC(=O)N4CCN(c5ccc(-c6cc(F)c7cn(C(C(=O)Nc8nccs8)c8ncn9c8CCC9)nc7c6)cn5)CC4)CC3)cc21` (stereo not drawn) [Compound 67, 2-(6,7-dihydro-5H-pyrrolo[1,2-c]imidazol-1-yl)-2-[6-[6-[4-[2-[4-[3-(2,4-dioxohexahydropyrimidin-1-yl)-1-methyl-indazol-6-yl]-1-piperidyl]acetyl]piperazin-1-yl]-3-pyridyl]-4-fluoro-indazol-2-yl]-N-thiazol-2-yl-acetamide] are less than 50 nM and 50 to 150 nM.
With `O=C1CC[C@H](Nc2ccc(C3CCN(CC(=O)N4CCN(c5ccc(-c6cc(F)c7cn(C(C(=O)Nc8nccs8)c8ncn9c8CCC9)nc7c6)cn5)CC4)CC3)c(F)c2)C(=O)N1` (stereo partly drawn) [Compound 68, 2-(6,7-dihydro-5H-pyrrolo[1,2-c]imidazol-1-yl)-2-(6-(6-(4-(2-(4-(4-(((S)-2,6-dioxopiperidin-3-yl)amino)-2-fluorophenyl)piperidin-1-yl)acetyl)piperazin-1-yl)pyridin-3-yl)-4-fluoro-2H-indazol-2-yl)-N-(thiazol-2-yl)acetamide], the DC50 in test [1] (Table 9A) and in test [2] (Table 9A) was less than 50 nM each time.
On to `Cn1nc(N2CCC(=O)NC2=O)c2ccc(C3CCN(C(=O)CN4CC5(C4)CN(c4ccc(-c6ccc7cn(C(C(=O)Nc8nccs8)c8ncn9c8CCC9)nc7c6F)cn4)C5)CC3(F)F)cc21` (stereo not drawn) [Compound 73, 2-(6,7-dihydro-5H-pyrrolo[1,2-c]imidazol-1-yl)-2-(6-(6-(6-(2-(4-(3-(2,4-dioxotetrahydropyrimidin-1(2H)-yl)-1-methyl-1H-indazol-6-yl)-3,3-difluoropiperidin-1-yl)-2-oxoethyl)-2,6-diazaspiro[3.3]heptan-2-yl)pyridin-3-yl)-7-fluoro-2H-indazol-2-yl)-N-(thiazol-2-yl)acetamide], for which the DC50 in test [1] (Table 9B) and in test [2] (Table 9B) was less than 50 nM throughout.
For the compound `O=C1CC[C@H](Nc2ccc(C3CCN(CC(=O)N4C[C@H]5C[C@@H]4CN5c4ccc(-c5cc(F)c6c(c5)C(=O)N(C(C(=O)Nc5nccs5)c5ncn7c5CCC7)C6)cc4)CC3)c(F)c2)C(=O)N1` (stereo partly drawn) [Compound 80, 2-(6,7-dihydro-5H-pyrrolo[1,2-c]imidazol-1-yl)-2-(6-(4-((1R,4R)-5-(2-(4-(4-(((S)-2,6-dioxopiperidin-3-yl)amino)-2-fluorophenyl)piperidin-1-yl)acetyl)-2,5-diazabicyclo[2.2.1]heptan-2-yl)phenyl)-4-fluoro-1-oxoisoindolin-2-yl)-N-(thiazol-2-yl)acetamide], the figures for the DC50 in test [1] (Table 9B) and in test [2] (Table 9B) were 50 to 150 nM and less than 50 nM, respectively.
For `O=C1CCC(Nc2ccc(N3CCC(O)(CC(=O)N4CCN(c5ccc(-c6cc(F)c7c(c6)C(=O)N(C(C(=O)Nc6nccs6)c6ncn8c6CCC8)C7)cc5)CC4)CC3)c(F)c2)C(=O)N1` (stereo not drawn) [Compound 83, 2-(6,7-dihydro-5H-pyrrolo[1,2-c]imidazol-1-yl)-2-[6-[4-[4-[2-[1-[4-[(2,6-dioxo-3-piperidyl)amino]-2-fluoro-phenyl]-4-hydroxy-4-piperidyl]acetyl]piperazin-1-yl]phenyl]-4-fluoro-1-oxo-isoindolin-2-yl]-N-thiazol-2-yl-acetamide], in that order: less than 50 nM and less than 50 nM.
For `O=C1CC[C@H](Nc2ccc(C3CCN(CC(=O)N4CCCN(c5ccc(-c6cc(F)c7c(c6)C(=O)N(C(C(=O)Nc6nccs6)c6ncn8c6CCC8)C7)cc5)CC4)CC3)c(F)c2)C(=O)N1` (stereo partly drawn) [Compound 84, 2-(6,7-dihydro-5H-pyrrolo[1,2-c]imidazol-1-yl)-2-(6-(4-(4-(2-(4-(4-(((S)-2,6-dioxopiperidin-3-yl)amino)-2-fluorophenyl)piperidin-1-yl)acetyl)-1,4-diazepan-1-yl)phenyl)-4-fluoro-1-oxoisoindolin-2-yl)-N-(thiazol-2-yl)acetamide], in that order: 50 to 150 nM and 50 to 150 nM.
For `Cn1nc(N2CCC(=O)NC2=O)c2ccc(C3CCN(C(=O)CN4CCC(c5ccc(-c6cc(F)c7c(c6)C(=O)N(C(C(=O)Nc6nccs6)c6ncn8c6CCC8)C7)cc5)CC4)CC3)cc21` (stereo not drawn) [Compound 85, 2-(6,7-dihydro-5H-pyrrolo[1,2-c]imidazol-1-yl)-2-[6-[4-[1-[2-[4-[3-(2,4-dioxohexahydropyrimidin-1-yl)-1-methyl-indazol-6-yl]-1-piperidyl]-2-oxo-ethyl]-4-piperidyl]phenyl]-4-fluoro-1-oxo-isoindolin-2-yl]-N-thiazol-2-yl-acetamide], in that order: 50 to 150 nM and less than 50 nM.

By DC50 is commonly meant the concentration giving 50% degradation.

The values above are taken from patent US20240158418A1 (C4 Therapeutics, Inc., priority 2021, published 2024).
